Laboratory results: PubChem BioAssay AID2060907 (Molecular Pharmacology Branch, DTP, NCI, 2025)

Tested on: 388556-164-R-J1-PDC complex spheroid viability
Experiment: Anticancer human tumor 388556-164-R-J1-PDC patient-derived colon adenocarcinoma cell line growth inhibition [RAS]
Conditions: for IC50: curve of first compound; for viability, T/C: stronger effect = lower value
Outline: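 Tumour cells grown as complex spheroids with HUVEC endothelial cells and mesenchymal stem cells, treated with RAS pathway inhibitor combinations. Each agent spans half-log steps from near clinical Cmax, or 10 microM where Cmax is unknown.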

[1] = second compound 0.000949 µM, first compound 0.0316 µM
[2] = second compound 0.000949 µM, first compound 0.1 µM
[3] = second compound 0.000949 µM, first compound 0.316 µM
[4] = second compound 0.000949 µM, first compound 1 µM
[5] = second compound 0.000949 µM, first compound 3.16 µM
[6] = second compound 0.000949 µM, first compound 10 µM
[7] = second compound 0.003 µM, first compound 0.0316 µM
[8] = second compound 0.003 µM, first compound 0.1 µM
[9] = second compound 0.003 µM, first compound 0.316 µM
[10] = second compound 0.003 µM, first compound 1 µM
[11] = second compound 0.003 µM, first compound 3.16 µM
[12] = second compound 0.003 µM, first compound 10 µM
[13] = second compound 0.00949 µM, first compound 0.0316 µM
[14] = second compound 0.00949 µM, first compound 0.1 µM
[15] = second compound 0.00949 µM, first compound 0.316 µM
[16] = second compound 0.00949 µM, first compound 1 µM
[17] = second compound 0.00949 µM, first compound 3.16 µM
[18] = second compound 0.00949 µM, first compound 10 µM
[19] = second compound 0.03 µM, first compound 0.0316 µM
[20] = second compound 0.03 µM, first compound 0.1 µM
[21] = second compound 0.03 µM, first compound 0.316 µM
[22] = second compound 0.03 µM, first compound 1 µM
[23] = second compound 0.03 µM, first compound 3.16 µM
[24] = second compound 0.03 µM, first compound 10 µM
[25] = second compound 0.0949 µM, first compound 0.0316 µM
[26] = second compound 0.0949 µM, first compound 0.1 µM
[27] = second compound 0.0949 µM, first compound 0.316 µM
[28] = second compound 0.0949 µM, first compound 1 µM
[29] = second compound 0.0949 µM, first compound 3.16 µM
[30] = second compound 0.0949 µM, first compound 10 µM
[31] = second compound 0.3 µM, first compound 0.0316 µM
[32] = second compound 0.3 µM, first compound 0.1 µM
[33] = second compound 0.3 µM, first compound 0.316 µM
[34] = second compound 0.3 µM, first compound 1 µM
[35] = second compound 0.3 µM, first compound 3.16 µM
[36] = second compound 0.3 µM, first compound 10 µM
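Also: spheroids exposed to compound for 7 days before readout.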
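For viability, T/C in this document: 100% = DMSO vehicle control luminescence.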

`C[C@@H](NC(=O)c1ncnc(N)c1Cl)c1ncc(C(=O)Nc2cc(C(F)(F)F)c(Cl)cn2)s1` + CCn1c(-c2cccnc2C(C)OC)c2c3cc(ccc31)N1CCOC(CC(NC(=O)C(C(C)C)N(C)C(=O)C3(F)CCN(C(=O)C#CC(C)(C)N(C)C)CC3)C(=O)N3CCCC(N3)C(=O)OCC(C)(C)C2)C1 showed an IC50 (second compound 0.000949 µM) greater than 10 µM, an IC50 (second compound 0.003 µM) greater than 10 µM and an IC50 (second compound 0.00949 µM) greater than 10 µM. The IC50 (second compound 0.03 µM) was greater than 10 µM, the IC50 (second compound 0.0949 µM) was greater than 10 µM and the IC50 (second compound 0.3 µM) was greater than 10 µM. For the same molecule, the viability, T/C [1] was 113%, the viability, T/C [2] was 113% and the viability, T/C [3] was 115%. It also gave a viability, T/C [4] of 123%, a viability, T/C [5] of 117% and a viability, T/C [6] of 94.7%. For the same molecule, the viability, T/C [7] was 117%, the viability, T/C [8] was 102% and the viability, T/C [9] was 119%. The viability, T/C [10] was 108%, the viability, T/C [11] was 121% and the viability, T/C [12] was 96.7%. The viability, T/C [13] was 105%, the viability, T/C [14] was 109% and the viability, T/C [15] was 113%. It also gave a viability, T/C [16] of 108%, a viability, T/C [17] of 123% and a viability, T/C [18] of 105%. It also gave a viability, T/C [19] of 113%, a viability, T/C [20] of 102% and a viability, T/C [21] of 102%. For the same molecule, the viability, T/C [22] was 109%, the viability, T/C [23] was 117% and the viability, T/C [24] was 91.1%. For the same molecule, the viability, T/C [25] was 93.4%, the viability, T/C [26] was 115% and the viability, T/C [27] was 110%. The viability, T/C [28] was 119%, the viability, T/C [29] was 113% and the viability, T/C [30] was 90.7%. The viability, T/C [31] was 87.3%, the viability, T/C [32] was 108% and the viability, T/C [33] was 99.6%. The viability, T/C [34] was 104%, the viability, T/C [35] was 115% and the viability, T/C [36] was 88%.
For `CC(C)n1nc(-c2ccc3oc(N)nc3c2)c2c(N)ncnc21` + C#Cc1c(F)ccc2cc(O)cc(-c3ncc4c(N5CC6CCC(C5)N6)nc(OCC56CCCN5CC(F)C6)nc4c3F)c12, the IC50 (second compound 0.0316 µM) was 0.0985 µM, the IC50 (second compound 0.1 µM) was 0.0785 µM and the IC50 (second compound 0.316 µM) was 0.0487 µM. For the same molecule, the IC50 (second compound 1 µM) was 0.0416 µM, the IC50 (second compound 3.16 µM) was 0.0392 µM and the IC50 (second compound 10 µM) was 0.0106 µM. The viability, T/C (second compound 0.0316 µM, first compound 0.000316 µM) was 98.6%, the viability, T/C (second compound 0.0316 µM, first compound 0.001 µM) was 97.7% and the viability, T/C (second compound 0.0316 µM, first compound 0.00316 µM) was 89.9%. The viability, T/C (second compound 0.0316 µM, first compound 0.01 µM) was 75.7%, the viability, T/C (second compound 0.0316 µM, first compound 0.0316 µM) was 64% and the viability, T/C (second compound 0.0316 µM, first compound 0.1 µM) was 49.4%. The viability, T/C (second compound 0.1 µM, first compound 0.000316 µM) was 95.7%, the viability, T/C (second compound 0.1 µM, first compound 0.001 µM) was 99.7% and the viability, T/C (second compound 0.1 µM, first compound 0.00316 µM) was 90.6%. For the same molecule, the viability, T/C (second compound 0.1 µM, first compound 0.01 µM) was 78.5%, the viability, T/C (second compound 0.1 µM, first compound 0.0316 µM) was 62.6% and the viability, T/C (second compound 0.1 µM, first compound 0.1 µM) was 46.6%. For the same molecule, the viability, T/C (second compound 0.316 µM, first compound 0.000316 µM) was 91.6%, the viability, T/C (second compound 0.316 µM, first compound 0.001 µM) was 97.1% and the viability, T/C (second compound 0.316 µM, first compound 0.00316 µM) was 79.5%. The viability, T/C (second compound 0.316 µM, first compound 0.01 µM) was 79.5%, the viability, T/C (second compound 0.316 µM, first compound 0.0316 µM) was 56% and the viability, T/C (second compound 0.316 µM, first compound 0.1 µM) was 37.8%. For the same molecule, the viability, T/C (second compound 1 µM, first compound 0.000316 µM) was 90.5%, the viability, T/C (second compound 1 µM, first compound 0.001 µM) was 88% and the viability, T/C (second compound 1 µM, first compound 0.00316 µM) was 69.9%. For the same molecule, the viability, T/C (second compound 1 µM, first compound 0.01 µM) was 71.5%, the viability, T/C (second compound 1 µM, first compound 0.0316 µM) was 55.6% and the viability, T/C (second compound 1 µM, first compound 0.1 µM) was 35.5%. The viability, T/C (second compound 3.16 µM, first compound 0.000316 µM) was 82.2%, the viability, T/C (second compound 3.16 µM, first compound 0.001 µM) was 74.4% and the viability, T/C (second compound 3.16 µM, first compound 0.00316 µM) was 68.5%. It also gave a viability, T/C (second compound 3.16 µM, first compound 0.01 µM) of 73.5%, a viability, T/C (second compound 3.16 µM, first compound 0.0316 µM) of 52.3% and a viability, T/C (second compound 3.16 µM, first compound 0.1 µM) of 31.4%. It also gave a viability, T/C (second compound 10 µM, first compound 0.000316 µM) of 74.6%, a viability, T/C (second compound 10 µM, first compound 0.001 µM) of 59.9% and a viability, T/C (second compound 10 µM, first compound 0.00316 µM) of 60.1%. For the same molecule, the viability, T/C (second compound 10 µM, first compound 0.01 µM) was 53.3%, the viability, T/C (second compound 10 µM, first compound 0.0316 µM) was 40.3% and the viability, T/C (second compound 10 µM, first compound 0.1 µM) was 29.9%.
For `CCC(CC)c1cc(NC2CCC(N)C2)n2nccc2n1` (stereo unspecified) + CCn1c(-c2cccnc2C(C)OC)c2c3cc(ccc31)N1CCOC(CC(NC(=O)C(C(C)C)N(C)C(=O)C3(F)CCN(C(=O)C#CC(C)(C)N(C)C)CC3)C(=O)N3CCCC(N3)C(=O)OCC(C)(C)C2)C1, the IC50 (second compound 0.000949 µM) was 4.85 µM, the IC50 (second compound 0.003 µM) was 4.46 µM and the IC50 (second compound 0.00949 µM) was 5.17 µM. For the same molecule, the IC50 (second compound 0.03 µM) was 4.12 µM, the IC50 (second compound 0.0949 µM) was 4.76 µM and the IC50 (second compound 0.3 µM) was 2.94 µM. The viability, T/C [1] was 101%, the viability, T/C [2] was 95.6% and the viability, T/C [3] was 104%. For the same molecule, the viability, T/C [4] was 106%, the viability, T/C [5] was 60.2% and the viability, T/C [6] was 32.8%. The viability, T/C [7] was 113%, the viability, T/C [8] was 105% and the viability, T/C [9] was 100%. It also gave a viability, T/C [10] of 104%, a viability, T/C [11] of 57.6% and a viability, T/C [12] of 31.9%. For the same molecule, the viability, T/C [13] was 112%, the viability, T/C [14] was 106% and the viability, T/C [15] was 102%. The viability, T/C [16] was 93.2%, the viability, T/C [17] was 64% and the viability, T/C [18] was 30.4%. It also gave a viability, T/C [19] of 105%, a viability, T/C [20] of 102% and a viability, T/C [21] of 107%. For the same molecule, the viability, T/C [22] was 106%, the viability, T/C [23] was 54.3% and the viability, T/C [24] was 35.6%. The viability, T/C [25] was 110%, the viability, T/C [26] was 87.3% and the viability, T/C [27] was 100%. For the same molecule, the viability, T/C [28] was 103%, the viability, T/C [29] was 58.3% and the viability, T/C [30] was 34.8%. The viability, T/C [31] was 101%, the viability, T/C [32] was 89.9% and the viability, T/C [33] was 92.6%. For the same molecule, the viability, T/C [34] was 91.6%, the viability, T/C [35] was 47.2% and the viability, T/C [36] was 34.4%.
